We go through 3 compounds from publication PMC6828666, “Discovery of holoenzyme-disrupting chemicals as substrate-selective CK2 inhibitors” (Scientific Reports, 2019).

One assay deals with T1, CK2α2β2 holoenzyme (Homo sapiens, UniProt P68400).
T1 construct: made in house; host or cells: Escherichia coli (CK2α)
Nature of the assay: Olig2 phosphorylation assay (CK2β-dependent protein substrate). The settings on record: 50 μM compound; GST-Olig-2, CK2α, increasing CK2β. The class given is biochemical. As for the experimental part: For Olig2 phosphorylation assay, GST-Olig2 fusion protein (3.7 μg) was incubated with 200 nM CK2α, in the absence or presence of 50 μM compound 1 and increasing concentrations of CK2β. Samples were analyzed by SDS PAGE and subjected to autoradiography. Phosphoproteins were quantified by densitometry scanning. For eIF2 peptide phosphorylation assay, the CK2β-dependent peptide substrate (600 μM) was incubated with CK2α (40–50 nM) and increasing concentrations of compound 1 or/and CK2β.
Fig. S3. Compound 1 inhibits CK2β-dependent phosphorylation of Olig2 transcription factor and CK2β-dependent autophosphorylation. (a) CK2α (200 nM) was incubated with increasing concentrations of CK2β in the absence or presence of compound 1 (50 μM) followed by the addition of GST-Olig2 (3.7 μg), [γ^32P]-ATP (100 μM, 1 μCi) and MgCl2 (10 mM). Samples were analyzed by SDS PAGE and subjected to autoradiography. Left and right parts of the image are from the same gel (see Supplementary Fig. S16). (b) ^32P incorporated into GST-Olig2 was determined by densitometry scanning and is expressed as arbitrary units; (c) CK2β (300 nM) was incubated with increasing concentrations of compound 1, 10 μM [γ^32P] […] Phosphorylated proteins were separated by SDS/PAGE and analyzed by autoradiography (c) or Coomassie Blue staining (d); ^32P incorporation into CK2β was quantified and expressed as arbitrary units (e). […]

Another assay addresses T2, CK2 holoenzyme (Homo sapiens, UniProt P68400).
T2 construct: made in house; host or cells: Escherichia coli (CK2α)
The experiment in a line: Autophosphorylation of CK2β by CK2 holoenzyme. The note with it: increasing concentrations of compound. The class given is biochemical. The protocol: Fig. S3. Compound 1 inhibits CK2β-dependent phosphorylation of Olig2 transcription factor and CK2β-dependent autophosphorylation. (a) CK2α (200 nM) was incubated with increasing concentrations of CK2β in the absence or presence of compound 1 (50 μM) followed by the addition of GST-Olig2 (3.7 μg), [γ^32P]-ATP (100 μM, 1 μCi) and MgCl2 (10 mM). Samples were analyzed by SDS PAGE and subjected to autoradiography. Left and right parts of the image are from the same gel (see Supplementary Fig. S16). (b) ^32P incorporated into GST-Olig2 was determined by densitometry scanning and is expressed as arbitrary units; (c) CK2β (300 nM) was incubated with increasing concentrations of compound 1, 10 μM [γ^32P] ATP and 10 mM MgCl2. Autophosphorylation was initiated by the addition of 300 nM CK2α. Phosphorylated proteins were separated by SDS/PAGE and analyzed by autoradiography (c) or Coomassie Blue staining (d); ^32P incorporation into CK2β was quantified and expressed as arbitrary units (e). Uncropped blots are shown in Supplementary Fig. S16.

The next assay addresses T3, CHK2 (Homo sapiens, UniProt O96017).
T3 construct: purchased Millipore (Upstate Kinase Profiler Panel Service)
Nature of the assay: Kinase selectivity profiling (Millipore Kinase profiler). The class given is biochemical. The note with it: 100 μM compound; 10 μM ATP. As for the experimental part:
Kinase selectivity of compound 1 was assessed using a panel of 45 recombinant protein kinases. The assays were performed at 10 μM ATP in the presence of 100 μM inhibitor using the Kinase profiler panel service (Millipore). Inhibition, expressed as the percent of activity determined in the absence of inhibitor, was calculated from the residual activity measured in the presence of 100 μM inhibitor.
Fig. S4. Kinase selectivity profile of compound 1 on a panel of 45 different protein kinases. The assays were performed at 10 μM ATP in the presence of 100 μM compound 1 using the Upstate Kinase Profiler Panel Service (Millipore). Residual activity in presence of 100 μM compound 1 are depicted in (a) and a graphical representation of the inhibition percentage in the presence of 100 μM compound 1 is shown in (b).

For the next assay, the target named is CK2α (Homo sapiens, UniProt P68400). The experiment in a line: STD-NMR competition with AMPPNP. The class given is binding. The protocol:
Standard 1D, STD, and WaterLOGSY NMR spectra were acquired at 20 °C with a Bruker 600 MHz NMR spectrometer, equipped with a Z-gradient cryoprobe. WaterLOGSY mixing time was 1.5 s. Both STD and WaterLOGSY spectra were recorded for each sample. WaterLOGSY spectra in the absence of protein receptor were recorded with 300 µM compound to assess the compound solubility. All the NMR experiments were performed at 293 K with excitation sculpting to suppress peaks from water. 1D and STD experiments were performed using identical experimental conditions (spin lock, interscan delays), and parameters for the STD experiments (saturation frequency and saturation time) were identical for all samples. […] NMR tubes contained 2 μM CK2 with 300 μM of 4.
Fig. S8. NMR-based investigation of the binding of compound 4 to CK2α. (a) NMR-STD epitope mapping observed for compound 4. […] Both compounds bind simultaneously to CK2α.

In assay [1] the test system is PARP cleavage in MCF10A cells. Nature of the assay: Western blot of PARP cleavage. The class given is cell-based, human. The note with it: 24 h, 25 μM 6 or 30 μM TAT-Pc. As for the experimental part:
(§1) Figure 5 Cellular effects of compounds 3, 4 and 6. MCF10A cells were incubated for 24 h with either DMSO or 30 μM TAT or 30 μM TAT-Pc or 25 μM 6 (a) or with increasing concentrations of 6 (b) or 3 (c). MCF10A cells were incubated for 48 h with either DMSO or with increasing concentrations of 3 or 6 (d). Cells were then lysed and analyzed by western blot with the indicated antibodies. Blot images are representative of at least three independent experiments. Uncropped blots are shown in Supplementary Fig. S16. (e) MDA-MB231 cells were treated with 40 μM 6 (⚬), 4 (▴) or 3 (X). (f) MDA-MB231 cells were treated for 30 h with increasing concentrations of 6 (⚬) or 4 (▴). Insert: cells were treated for 30 h with 80 μM 6 or 10 μM CX-4945. […] Cell death was automatically quantified from images captured every 3 h for the duration of the experiments using an Essen IncuCyte Zoom live-cell microscopy incubator. […]
(§2) Cells were lysed in RIPA buffer (10 mM Tris-HCl pH 7.4, 150 mM NaCl, 1% Triton X-100, 0.1% SDS, 0.5% DOC and 1 mM EDTA) containing both protease- and phosphatase-inhibitor cocktails (Sigma-Aldrich; P8340, P2850, P5726). Cell homogenates were quantified using BCA protein Assay kit (Thermo Scientific). […] Luminata Forte Western HRP substrate (Millipore) was added and membranes were read with Fusion Fx7 (PerkinElmer). […] Images were analyzed and band intensities were quantified using ImageJ software. […]

Assay [2] has as its system survivin expression in MCF10A cells. The experiment in a line: Western blot of survivin expression. The class given is cell-based, human. The settings on record: 24 h, 25 μM 6 or 30 μM TAT-Pc. The protocol:
as §1, §2
A general note: In western blotting, separated proteins are transferred to a membrane and probed.

T3 sequence (O96017 whole entry): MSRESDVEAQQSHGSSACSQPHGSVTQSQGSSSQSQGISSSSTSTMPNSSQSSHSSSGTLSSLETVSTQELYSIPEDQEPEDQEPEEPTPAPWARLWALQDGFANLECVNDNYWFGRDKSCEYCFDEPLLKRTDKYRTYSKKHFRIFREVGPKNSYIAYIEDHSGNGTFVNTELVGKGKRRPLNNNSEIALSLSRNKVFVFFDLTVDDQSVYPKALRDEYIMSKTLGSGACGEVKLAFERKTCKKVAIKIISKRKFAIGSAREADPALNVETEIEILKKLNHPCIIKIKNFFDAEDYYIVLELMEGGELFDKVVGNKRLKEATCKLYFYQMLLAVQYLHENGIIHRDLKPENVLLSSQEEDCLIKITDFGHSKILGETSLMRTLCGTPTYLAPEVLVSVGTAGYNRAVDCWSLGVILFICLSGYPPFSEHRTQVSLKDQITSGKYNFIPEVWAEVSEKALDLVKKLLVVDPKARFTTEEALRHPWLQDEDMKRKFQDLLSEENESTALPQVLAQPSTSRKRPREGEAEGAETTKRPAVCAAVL
T1 sequence (P68400 whole entry): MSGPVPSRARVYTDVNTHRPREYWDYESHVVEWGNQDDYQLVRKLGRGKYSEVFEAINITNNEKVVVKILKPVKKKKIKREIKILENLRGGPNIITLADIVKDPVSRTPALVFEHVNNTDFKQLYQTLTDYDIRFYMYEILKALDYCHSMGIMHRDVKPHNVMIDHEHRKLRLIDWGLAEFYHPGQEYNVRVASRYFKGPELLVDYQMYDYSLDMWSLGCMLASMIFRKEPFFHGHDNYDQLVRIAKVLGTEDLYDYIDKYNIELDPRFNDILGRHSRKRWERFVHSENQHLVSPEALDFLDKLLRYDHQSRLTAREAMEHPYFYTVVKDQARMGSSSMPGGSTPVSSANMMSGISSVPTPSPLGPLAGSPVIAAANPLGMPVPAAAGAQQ
Sequence of CK2α (P68400 whole entry): as above
T2 sequence (P68400 whole entry): as above

Usually inhibition stands for how much of the control response was suppressed. As to `COc1[nH]c2ccc(F)cc2c1C(=O)OCC1CCN(CCNS(C)(=O)=O)CC1` [Compound 1], at CK2α2β2 holoenzyme, the “decrease in Olig-2 phosphorylation” value was ~ 50%. Further, at CK2 holoenzyme, the “autophosphorylation of CK2β” value is “dose-dependent decrease”. In addition, the inhibition at 100 µM at CHK2 was 24%.
With `O=C(OCC1CCN(CCNS(=O)(=O)c2ccccc2)CC1)c1c[nH]c2ccccc12` [Compound 4, (1-(2-(Phenylsulfonamido)ethyl)piperidin-4-yl)methyl 1H-indole-3-carboxylate], the “displacement of AMPPNP upon compound binding” value on CK2α was “not displaced”.
Take `COc1[nH]c2ccc(F)cc2c1C(=O)OCC1CCN(CCNS(=O)(=O)c2ccccc2)CC1.Cl` [Compound 6]: the PARP cleavage result in assay [1] is on record as “No significant PARP cleavage”. In addition, in assay [2], the survivin expression entry was “decreased”.
